We go through two compounds from patent US7288535B2, “Methods and compositions for stimulating bone growth using nitric oxide releasing bisphosphonate conjugates” (OsteoScreen, Inc., priority 2002, dated 2007).

Series [1] relates to Neonatal Murine Calvariae. Particulars: mean ± standard error (n=5). Here is the method: (§1) An assay for bone resorption or bone formation is similar to that described by Gowen M. & Mundy G., J Immunol (1986) 136:2478-82. Briefly, four days after birth, the front and parietal bones of ICR Swiss white mouse pups are removed by microdissection and split along the sagittal suture. […] The medium used when the assay is conducted to assess bone formation is Fitton and Jackson Modified BGJ Medium (Sigma) supplemented with 6 ug/ml insulin, 6 ug/ml transferrin, 6 ng/ml selenous acid, calcium and phosphate concentrations of 1.25 and 3.0 mM, respectively, and ascorbic acid to a concentration of 100 ug/ml is added every two days. The incubation is conducted at 37° C. in a humidified atmosphere of 5% CO2 and 95% air for 96 hours.
The bones are removed from the incubation media and fixed in 10% buffered formalin for 24-48 hours, decalcified in 14% EDTA for 1 week, processed through graded alcohols; and embedded in paraffin wax. Three μm sections of the calvaria are prepared. Representative sections are selected for histomorphometric assessment of bone formation or bone resorption. Bone changes are measured on sections cut 200 μm apart. Osteoblasts and osteoclasts are identified by their distinctive morphology.
Selected compounds and appropriate controls were assayed in vitro (ex vivo) for bone formation activity (described above in “Techniques for Neonatal Mouse Calvaria Assay (in vitro)). Histomorphometrical assessments of ex vivo calvaria were carried out using an OsteoMetrics bone morphometry measurement program, according to the manufacturer's instructions. Measurements were determined using either a 10- or 20-fold objective with a standard point counting eyepiece graticule.
New bone formation was determined (using a 20× objective) by measuring the new bone area formed in one field in 3 representative sections of each bone (4 bones per group). Each measurement was carried out ½ field distance from the end of the suture. Both total bone and old bone area were measured. Data were expressed as new bone width in mm.
Osteoblast numbers are determined by point counting. The number of osteoblast cells lining the bone surface on both sides of the bone are counted in one field using a 20× objective. Data are expressed as osteoblast numbers/mm of bone surface.

In series [2] the test system is neonatal murine calvarial incubation media. Particulars: mean ± standard error (n=5). Here is the method: as §1
These neonatal murine calvaria do contain measurable levels of alkaline phosphatase and this can be measured either from the calvaria itself or to some degree in the incubation media as a semi-quantitative measurement of bone formation activity. For measurement of alkaline phosphatase activity in the media, 50 ul is removed at the end of the assay. The activity is then measured using standard alkaline phosphatase reagents.
Alkaline phosphatase activity is measured in the incubation media as detailed described above in “Techniques for Neonatal Mouse Calvaria Assay (in vitro)).

Series [3] relates to human stomach. Conditions: healthy volunteers, doses prescribed for osteoporosis and Pagets disease of bone; cited from earlier work.

Where two headings read alike, the source gives them in different places. Marks after values point to notes of the source that are not given here.

On to `NCCCC(O)(P(=O)(O)O)P(=O)(O)O` [Alendronate, (4-animo-1-hydroxybutylidene)bis-phosphonate], for which the “Cell Number/0.3 mm bone” value in series [1] (0.1 uM) is reported as 98± 6 /0.3 mm bone; in series [1] (1 uM), 103± 4 /0.3 mm bone; in series [1] (10 uM), 101± 5 /0.3 mm bone; in series [1] (100 uM) it was 97± 3 /0.3 mm bone. Besides, the “New Bone Area” value in series [1] (0.1 uM) turned out to be 2.9 ± 0.1 mm^2 × 10^−3; in series [1] (1 uM) it was 3.2 ± 0.5 mm^2 × 10^−3; in series [1] (10 uM), 2.7 ± 0.2 mm^2 × 10^−3; in series [1] (100 uM) it was 3.1 ± 0.3 mm^2 × 10^−3. Besides, the “Alkaline Phosphatase OD” value in series [2] (0.1 uM) was determined as 0.030 ± 0.009 OD; in series [2] (1 uM) it was 0.031 ± 0.010 OD; in series [2] (10 uM), 0.034 ± 0.001 OD; in series [2] (100 uM), 0.038 ± 0.003 OD. In series [3], the “injury to the stomach” value is “cause erosions and ulcers in the human stomach”.
As to `O=C(NCCCC(O)(P(=O)(O)O)P(=O)(O)O)c1ccc(CO[N+](=O)[O-])cc1` [NOX-Alendronate, [4-(4′-nitrooxymethyl)benzoylamino-1-hydroxybutylidene]-bis-phosphonate], the “Cell Number/0.3 mm bone” value in series [1] (0.1 uM) is on record as 104 ± 8 /0.3 mm bone; in series [1] (1 uM), 115 ± 5 /0.3 mm bone; in series [1] (10 uM), 132 ± 5 /0.3 mm bone; in series [1] (100 uM), 124 ± 2 /0.3 mm bone. In addition, the “New Bone Area” value in series [1] (0.1 uM) is reported as 3.6 ± 0.6 mm^2 × 10^−3; in series [1] (1 uM), 4.2 ± 0.4 mm^2 × 10^−3; in series [1] (10 uM) it was 6.7 ± 0.7* mm^2 × 10^−3; in series [1] (100 uM) it was 5.4 ± 0.3* mm^2 × 10^−3. For the same compound, the “Alkaline Phosphatase OD” value in series [2] (0.1 uM) was 0.029 ± 0.007 OD; in series [2] (1 uM), 0.023 ± 0.001 OD; in series [2] (10 uM), 0.053 ± 0.007 OD; in series [2] (100 uM), 0.072 ± 0.003 OD.
